The values that follow come from patent publication US10526580B2, “Differentiated cell population of endothelial cells derived from human pluripotent stem cells, composition, system, kit and uses thereof” (BIOCANT-ASSOCIAÇÃO DE TRANSFERÊNCIA DE TECNOLOGIA, priority 2012, dated 2020).

Molecules are shown by their SMILES.

One series relates to HUAECs. The series is described as follows: Vascular toxicity of terbinafine in static or flow culture (qRT-PCR, ELISA). In kind it is cell-based, human. As to the method:
(§1) Fluidic shear stress experiments. HESC-derived ECs (2.6×10^6 cells/mL), HUAECs, HUVECs were seeded on flow chamber untreated-slides (μ-slide 0.4, luer, IBIDI) and grown until confluence. Using a programmed IBIDI pump with positive pressure, the cell monolayer was perfused with EGM-2 medium for 7 days, at flow rate of 15.1 mL/min (corresponding to shear stress of 20 dyne/cm2), or 3.02 mL/min (corresponding to shear stress of 4 dyne/cm2). After 7 days the flow was stopped, the cells imaged, and then stained or collected for posterior gene analysis. Medium was collected for ELISA assays. In some experiments, cells were cultured in medium supplemented with terbinafine (0.1 μM or 1 μM) (Sigma) for a maximum of 24 h, under shear stress. Static controls were performed in the chamber coated-slides but without flow. The IBIDI slides allow a laminar perfusion in rectangular flow geometry.
(§2) Evaluation of the levels of vascular injury by specific markers. ELISA kits analyzed supernatants collected from the shear stress experiments for vWF and vWFpp (Gen-Probe GTI Diagnostic) and ADMA (Enzo Life Sciences), according to manufacturer's recommendations.
Terbinafine is an antifungal agent (inhibitor of ergosterol synthesis) that inhibits angiogenesis by suppressing endothelial cell proliferation, inhibits DNA synthesis and activates EC apoptosis^34, 35. Terbinafine is cytotoxic for HUVECs for concentrations above 120 μM^35. To determine whether the hESC-derived ECs cultured under flow conditions could be used to assess vascular toxicity, cells were cultured for 7 days at 20 dyne/cm2 after which the culture medium was supplemented or not with terbinafine (0.1 and 1 μM) and cells cultured under the same flow conditions for one more day. […] Next, was assessed by qRT-PCR the expression of genes involved in inflammation (ICAM-1; E-selectin), oxidative stress sensing (HO-1) and vasculature modulation (eNOS) in hESC-derived cells and control HUAEC after exposition to terbinafine (FIG. 3B). As expected, the expression of these genes increases under fluidic shear stress^36. […] Upregulation of some genes (HO-1 and E-selectin) was only observed for concentrations of 1 μM in HUAECs. […] ADMA is a naturally occurring amino acid that circulates in plasma and is generated by degradation of methylated proteins. Increase levels of ADMA inhibits nitric oxide (NO) production by competitive inhibition of the physiological substrate L-arginine^38. […]
Next, the vascular damage/injury induced by terbinafine was assessed in hESC-derived ECs and control HUAECs, in the same conditions as before, by measuring the levels of ADMA and the ratio von Willebrand factor pro-peptide (vWFpp): von Willebrand factor (vWF) secreted by these cells (FIG. 3C). […]
Background: In qPCR the cycle at which signal appears reflects the starting amount.

Another series concerns HUVECs. The note with it: cited from earlier work.
Another series deals with hESC-derived ECs. The experiment in a line: Vascular toxicity of terbinafine in static or flow culture (morphology, qRT-PCR, ELISA). Format: cell-based, human. As to the method:
as §1, §2
Terbinafine is an antifungal agent (inhibitor of ergosterol synthesis) that inhibits angiogenesis by suppressing endothelial cell proliferation, inhibits DNA synthesis and activates EC apoptosis^34, 35. Terbinafine is cytotoxic for HUVECs for concentrations above 120 μM^35. To determine whether the hESC-derived ECs cultured under flow conditions could be used to assess vascular toxicity, cells were cultured for 7 days at 20 dyne/cm2 after which the culture medium was supplemented or not with terbinafine (0.1 and 1 μM) and cells cultured under the same flow conditions for one more day. […] Next, was assessed by qRT-PCR the expression of genes involved in inflammation (ICAM-1; E-selectin), oxidative stress sensing (HO-1) and vasculature modulation (eNOS) in hESC-derived cells and control HUAEC after exposition to terbinafine (FIG. 3B). As expected, the expression of these genes increases under fluidic shear stress^36. […] Upregulation of some genes (HO-1 and E-selectin) was only observed for concentrations of 1 μM in HUAECs. […] ADMA is a naturally occurring amino acid that circulates in plasma and is generated by degradation of methylated proteins. Increase levels of ADMA inhibits nitric oxide (NO) production by competitive inhibition of the physiological substrate L-arginine^38. Drugs that inhibit NO pathway, upregulate caveolin-1 expression and/or enhance ADMA levels could potentially be associated with drug-induced endothelial dysfunction. Therefore, increased circulating levels of ADMA may serve as predictive marker of EC dysfunction^38. […] Such effect was not observed for HUAECs cultured under the same conditions. […] In addition, hESC-derived ECs are more sensitive to the effect of terbinafine than HUAECs.
Next, the vascular damage/injury induced by terbinafine was assessed in hESC-derived ECs and control HUAECs, in the same conditions as before, by measuring the levels of ADMA and the ratio von Willebrand factor pro-peptide (vWFpp): von Willebrand factor (vWF) secreted by these cells (FIG. 3C). The last 2 proteins with different biological activity are released in equimolar concentrations in plasma and an increased level of both proteins predicts EC activation/injury. […] Remarkably, hESC-derived ECs cultured under flow conditions in the presence of terbinafine secrete higher levels of ADMA and vWFpp:vWF than without the drug. Again, the sensitivity of HUAECs to terbinafine was lower than hESC-derived ECs. The concentration of ADMA secreted by hESC-derived cells at 24 h is 3.5 times higher than in basal conditions. Importantly, this shift in concentration is observed in human patients with cardiovascular diseases. Healthy persons have an average of 0.45±0.19 μmol of ADMA per liter of blood and this value increases 2.2 or 2.7 folds when the patient has idiopathic pulmonary arterial hypertension^37. […]

Where [1] appears, read: flow conditions, medium supplemented with terbinafine.

For `CN(C/C=C/C#CC(C)(C)C)Cc1cccc2ccccc12` [terbinafine], in the series on HUAECs (flow 20 dyne/cm2, 24 h), the “concentration at which upregulation of some genes (HO-1 and E-selectin) was observed” value was 1 µM. Further, the “secretion of vWFpp:vWF” value with HUAECs (flow conditions, exposed to terbinafine, ELISA) was “higher levels”. Further, in the series on HUAECs (setting [1]), the “decrease in the expression of DDAH1 and DDAH2” value is “not observed”. Further, the “secretion of ADMA or vWFpp:vWF versus control conditions” value in the series on HUAECs (static conditions, ELISA) is reported as “no significant higher secretion”; with hESC-derived ECs (static conditions, ELISA), “no significant higher secretion”. Also, in the series with HUVECs, the “concentrations cytotoxic for HUVECs” value was “above 120 μM”. In addition, in the series on hESC-derived ECs (flow 20 dyne/cm2, terbinafine 0.1 and 1 μM, day 8), the “changes in EC morphology and cadherin expression” value is on record as “No significant changes”. Also, in the series on hESC-derived ECs (flow conditions, ELISA), the “secretion of ADMA and vWFpp:vWF versus without the drug” value is reported as “higher levels”. Besides, the “concentration of ADMA secreted, relative to basal conditions” value in the series on hESC-derived ECs (flow conditions, at 24 h, ELISA) is given as 3.5 times. Moreover, in the series on hESC-derived ECs (setting [1]), the “expression of DDAH1 and DDAH2” value was “significant decrease”. Besides, the “expression of ICAM-1, E-selectin, HO-1 and eNOS genes (qRT-PCR)” value with hESC-derived ECs (terbinafine at 0.1 μM, flow 20 dyne/cm2, 24 h) is given as “higher”.
